In ChEMBL document CHEMBL1201862, “PubChem BioAssay data set” (2004):
Blank lines part the entries; values can stand above or below the compound they belong to. Active and inactive are the calls of the source.

Legend:
[1] = molecular target: Mitogen-activated protein kinase 1 (Homo sapiens, UniProt P28482); format: functional
[2] = molecular target: Serine/threonine-protein kinase D2 (Homo sapiens, UniProt Q9BZL6); format: functional;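 further: measured against PRKD2 as one member of a kinome-wide kinase profiling panel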
[3] = molecular target: Cyclin-dependent kinase 1 (Homo sapiens, UniProt P06493); format: functional;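 further: Kinome-wide panel profiling, with the target listed as panel member CDC2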
[4] = molecular target: Calcium/calmodulin-dependent protein kinase type 1 (Homo sapiens, UniProt Q14012); format: functional
[5] = molecular target: Mitogen-activated protein kinase 12 (Homo sapiens, UniProt P53778); format: functional;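 further: measured as one member of a kinome-wide kinase profiling panel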
[6] = molecular target: Serine/threonine-protein kinase MRCK alpha (Homo sapiens, UniProt Q5VT25); format: functional
[7] = molecular target: Proto-oncogene tyrosine-protein kinase Src (Homo sapiens, UniProt P12931); format: functional;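 further: SRC entry within a kinome-wide kinase profiling panel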
[8] = molecular target: 3-phosphoinositide-dependent protein kinase 1 (Homo sapiens, UniProt O15530); format: functional;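 further: value comes from the Navigating the Kinome panel, PDPK1 member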
[9] = molecular target: RAC-gamma serine/threonine-protein kinase (Homo sapiens, UniProt Q9Y243); format: functional
[10] = molecular target: MAP kinase-activated protein kinase 2 (Homo sapiens, UniProt P49137); format: functional;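 further: measured as one member of a kinome-wide kinase panel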
[11] = molecular target: Epidermal growth factor receptor (Homo sapiens, UniProt P00533)
Epidermal growth factor receptor, sequence (P00533 whole entry): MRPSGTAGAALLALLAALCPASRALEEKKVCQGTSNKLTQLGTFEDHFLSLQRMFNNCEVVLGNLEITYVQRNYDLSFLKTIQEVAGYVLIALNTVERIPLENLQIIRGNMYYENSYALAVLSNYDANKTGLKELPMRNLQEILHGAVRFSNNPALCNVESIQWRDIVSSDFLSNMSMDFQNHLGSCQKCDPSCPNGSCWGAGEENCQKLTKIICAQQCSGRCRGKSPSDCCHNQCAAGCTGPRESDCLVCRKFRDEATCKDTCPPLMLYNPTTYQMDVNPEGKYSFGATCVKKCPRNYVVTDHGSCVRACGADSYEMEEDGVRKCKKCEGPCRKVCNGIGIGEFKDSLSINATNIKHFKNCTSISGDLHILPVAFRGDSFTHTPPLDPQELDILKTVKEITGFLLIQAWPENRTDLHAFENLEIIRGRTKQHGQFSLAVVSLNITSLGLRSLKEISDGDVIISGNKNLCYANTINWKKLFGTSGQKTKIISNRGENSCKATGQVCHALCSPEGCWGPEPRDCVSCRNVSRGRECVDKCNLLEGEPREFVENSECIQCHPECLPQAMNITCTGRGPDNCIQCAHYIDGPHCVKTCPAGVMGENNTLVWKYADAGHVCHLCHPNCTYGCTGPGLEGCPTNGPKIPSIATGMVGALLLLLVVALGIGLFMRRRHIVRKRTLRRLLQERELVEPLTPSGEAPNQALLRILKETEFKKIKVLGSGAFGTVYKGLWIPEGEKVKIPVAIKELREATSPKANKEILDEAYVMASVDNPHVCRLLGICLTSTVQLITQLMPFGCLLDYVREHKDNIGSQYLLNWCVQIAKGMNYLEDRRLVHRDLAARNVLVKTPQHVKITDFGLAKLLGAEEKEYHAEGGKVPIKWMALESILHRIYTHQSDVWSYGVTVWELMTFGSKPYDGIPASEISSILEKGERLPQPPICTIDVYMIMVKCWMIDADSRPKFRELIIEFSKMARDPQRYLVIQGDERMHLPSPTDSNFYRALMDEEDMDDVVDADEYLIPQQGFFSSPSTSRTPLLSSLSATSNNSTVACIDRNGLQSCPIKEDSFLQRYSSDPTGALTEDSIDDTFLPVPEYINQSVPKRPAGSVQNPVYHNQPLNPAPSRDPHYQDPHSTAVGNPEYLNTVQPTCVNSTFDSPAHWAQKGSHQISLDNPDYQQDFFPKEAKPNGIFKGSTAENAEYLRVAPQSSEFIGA

[12] = molecular target: Serine/threonine-protein kinase Chk1 (Homo sapiens, UniProt O14757); format: functional;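 further: measured as one member of a kinome-wide kinase profiling panel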
[13] = molecular target: Serine/threonine-protein kinase PAK 1 (Homo sapiens, UniProt Q13153); format: functional
[14] = molecular target: MAP/microtubule affinity-regulating kinase 3 (Homo sapiens, UniProt P27448); format: functional;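 further: MARK3 affinity measured as one member of a kinome panel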
[15] = molecular target: Serine/threonine-protein kinase Chk2 (Homo sapiens, UniProt O96017); format: functional;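 further: CHEK2 entry within a kinome-wide screening panel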
[16] = molecular target: LIM domain kinase 1 (Homo sapiens, UniProt P53667); test: Navigating the Kinome. Panel member name: LIMK1; format: functional
[17] = molecular target: Casein kinase II subunit alpha (Homo sapiens, UniProt P68400); format: functional
[18] = molecular target: Mitogen-activated protein kinase 13 (Homo sapiens, UniProt O15264); format: functional
[19] = molecular target: Protein kinase C delta type (Homo sapiens, UniProt Q05655); format: functional
[20] = molecular target: Serine/threonine-protein kinase PLK1 (Homo sapiens, UniProt P53350); format: functional;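 further: PLK1 measured as one member of a kinome-wide profiling panel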
[21] = molecular target: Serine/threonine-protein kinase Nek2 (Homo sapiens, UniProt P51955); format: functional
[22] = molecular target: Fibroblast growth factor receptor 3 (Homo sapiens, UniProt P22607); format: functional
[23] = molecular target: Insulin receptor (Homo sapiens, UniProt P06213); format: functional;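 further: insulin receptor kinase tested as one member of a kinome-wide kinase panel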
[24] = molecular target: Interleukin-1 receptor-associated kinase 4 (Homo sapiens, UniProt Q9NWZ3); format: functional
[25] = molecular target: Cyclin-dependent kinase 5 (Homo sapiens, UniProt Q00535); format: functional;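 further: CDK5 measured as one member of a kinase profiling panel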
[26] = molecular target: Ephrin type-A receptor 2 (Homo sapiens, UniProt P29317); format: functional;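 further: EPHA2 tested as one member of a kinome-wide kinase panel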
[27] = molecular target: Calcium/calmodulin-dependent protein kinase type II subunit delta (Homo sapiens, UniProt Q13557); format: functional
[28] = molecular target: Casein kinase I isoform alpha (Homo sapiens, UniProt P48729); format: functional
Casein kinase I isoform alpha, sequence (P48729 whole entry, canonical isoform): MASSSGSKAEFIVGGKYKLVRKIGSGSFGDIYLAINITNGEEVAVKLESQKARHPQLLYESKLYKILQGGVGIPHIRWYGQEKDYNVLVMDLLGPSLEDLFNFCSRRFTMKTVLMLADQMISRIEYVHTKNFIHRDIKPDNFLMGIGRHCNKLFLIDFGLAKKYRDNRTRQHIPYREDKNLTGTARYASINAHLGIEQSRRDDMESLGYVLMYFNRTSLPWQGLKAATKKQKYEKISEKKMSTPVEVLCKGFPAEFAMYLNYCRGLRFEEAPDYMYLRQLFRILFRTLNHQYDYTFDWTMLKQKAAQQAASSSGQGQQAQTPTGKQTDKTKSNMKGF

[29] = molecular target: Serine/threonine-protein kinase 17A (Homo sapiens, UniProt Q9UEE5); format: functional
Serine/threonine-protein kinase 17A, sequence (Q9UEE5 whole entry): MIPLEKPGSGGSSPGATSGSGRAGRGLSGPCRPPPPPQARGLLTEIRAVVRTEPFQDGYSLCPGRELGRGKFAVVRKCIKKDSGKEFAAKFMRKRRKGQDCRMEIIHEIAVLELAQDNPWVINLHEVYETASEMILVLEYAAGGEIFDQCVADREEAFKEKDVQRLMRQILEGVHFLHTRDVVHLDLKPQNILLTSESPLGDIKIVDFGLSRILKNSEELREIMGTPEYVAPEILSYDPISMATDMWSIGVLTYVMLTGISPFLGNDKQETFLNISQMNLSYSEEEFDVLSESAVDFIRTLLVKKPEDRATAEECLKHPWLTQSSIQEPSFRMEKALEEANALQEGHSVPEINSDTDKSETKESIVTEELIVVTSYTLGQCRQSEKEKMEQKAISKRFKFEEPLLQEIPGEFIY

[30] = molecular target: Macrophage-stimulating protein receptor (Homo sapiens, UniProt Q04912); test: Navigating the Kinome. Panel member name: MST1R; format: functional
[31] = molecular target: Cyclin-dependent kinase 9 (Homo sapiens, UniProt P50750); format: functional;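 further: value from the CDK9 entry of a kinome-spanning kinase panel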
[32] = molecular target: Activated CDC42 kinase 1 (Homo sapiens, UniProt Q07912); test: Navigating the Kinome. Panel member name: ACK1; format: functional
[33] = molecular target: Maternal embryonic leucine zipper kinase (Homo sapiens, UniProt Q14680); format: functional
Maternal embryonic leucine zipper kinase, sequence (Q14680 whole entry): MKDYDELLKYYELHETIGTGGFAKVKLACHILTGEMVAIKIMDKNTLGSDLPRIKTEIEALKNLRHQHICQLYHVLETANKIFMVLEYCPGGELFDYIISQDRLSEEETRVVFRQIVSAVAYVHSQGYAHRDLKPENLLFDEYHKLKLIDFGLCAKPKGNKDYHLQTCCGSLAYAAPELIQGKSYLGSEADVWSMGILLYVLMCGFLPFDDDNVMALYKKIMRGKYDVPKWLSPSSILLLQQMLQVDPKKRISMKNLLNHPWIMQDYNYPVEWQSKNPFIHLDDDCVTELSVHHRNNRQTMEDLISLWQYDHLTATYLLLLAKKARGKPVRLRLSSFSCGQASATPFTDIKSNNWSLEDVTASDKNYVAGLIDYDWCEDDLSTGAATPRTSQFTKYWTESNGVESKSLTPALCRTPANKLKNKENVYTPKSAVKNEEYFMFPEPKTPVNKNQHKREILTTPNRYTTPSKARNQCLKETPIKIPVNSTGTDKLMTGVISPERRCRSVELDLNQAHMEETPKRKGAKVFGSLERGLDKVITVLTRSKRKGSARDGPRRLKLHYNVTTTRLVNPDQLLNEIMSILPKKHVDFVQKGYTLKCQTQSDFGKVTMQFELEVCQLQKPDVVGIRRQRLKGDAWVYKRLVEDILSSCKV

[34] = molecular target: Dual specificity protein kinase CLK4 (Homo sapiens, UniProt Q9HAZ1); format: functional
Dual specificity protein kinase CLK4, sequence (Q9HAZ1 whole entry): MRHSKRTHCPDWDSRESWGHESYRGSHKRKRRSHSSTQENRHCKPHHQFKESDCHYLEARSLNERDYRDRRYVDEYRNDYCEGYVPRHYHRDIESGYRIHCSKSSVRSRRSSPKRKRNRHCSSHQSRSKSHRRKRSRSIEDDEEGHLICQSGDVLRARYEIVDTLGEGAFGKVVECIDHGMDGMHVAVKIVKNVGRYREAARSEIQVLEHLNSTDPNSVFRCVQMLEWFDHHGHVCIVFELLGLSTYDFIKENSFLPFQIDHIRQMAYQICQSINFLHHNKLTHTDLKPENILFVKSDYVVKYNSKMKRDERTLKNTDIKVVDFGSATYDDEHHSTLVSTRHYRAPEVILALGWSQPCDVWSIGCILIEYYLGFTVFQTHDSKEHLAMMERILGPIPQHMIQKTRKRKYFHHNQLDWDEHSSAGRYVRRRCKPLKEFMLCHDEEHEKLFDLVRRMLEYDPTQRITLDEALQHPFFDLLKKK

[35] = molecular target: Platelet-derived growth factor receptor alpha (Homo sapiens, UniProt P16234); test: Navigating the Kinome. Panel member name: PDGFRA; format: functional
[36] = molecular target: Activin receptor type-1 (Homo sapiens, UniProt Q04771); test: Navigating the Kinome. Panel member name: ACVR1; format: functional
[37] = molecular target: Mitogen-activated protein kinase kinase kinase kinase 2 (Homo sapiens, UniProt Q12851); format: functional;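 further: measured as one member of a kinome-wide kinase panel, with MAP4K2 as the panel entry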
[38] = molecular target: Homeodomain-interacting protein kinase 2 (Homo sapiens, UniProt Q9H2X6); format: functional;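 further: measured within a kinome-wide kinase profiling panel, HIPK2 being one panel member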
[39] = molecular target: Cyclin-dependent kinase 7 (Homo sapiens, UniProt P50613); format: functional;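 further: value comes from a kinome-wide kinase profiling panel in which CDK7 is one member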
Cyclin-dependent kinase 7, sequence (P50613 whole entry): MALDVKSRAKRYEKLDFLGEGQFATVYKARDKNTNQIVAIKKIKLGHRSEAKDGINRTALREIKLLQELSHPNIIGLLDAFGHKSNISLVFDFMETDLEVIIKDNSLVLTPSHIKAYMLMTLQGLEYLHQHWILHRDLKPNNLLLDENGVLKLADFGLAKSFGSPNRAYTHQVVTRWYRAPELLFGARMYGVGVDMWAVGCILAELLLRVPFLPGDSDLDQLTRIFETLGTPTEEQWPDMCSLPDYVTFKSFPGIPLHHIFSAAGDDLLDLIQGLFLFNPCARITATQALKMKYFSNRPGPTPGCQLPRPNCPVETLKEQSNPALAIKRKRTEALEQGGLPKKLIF

[40] = molecular target: Serine/threonine-protein kinase N2 (Homo sapiens, UniProt Q16513); format: functional
Serine/threonine-protein kinase N2, sequence (Q16513 whole entry): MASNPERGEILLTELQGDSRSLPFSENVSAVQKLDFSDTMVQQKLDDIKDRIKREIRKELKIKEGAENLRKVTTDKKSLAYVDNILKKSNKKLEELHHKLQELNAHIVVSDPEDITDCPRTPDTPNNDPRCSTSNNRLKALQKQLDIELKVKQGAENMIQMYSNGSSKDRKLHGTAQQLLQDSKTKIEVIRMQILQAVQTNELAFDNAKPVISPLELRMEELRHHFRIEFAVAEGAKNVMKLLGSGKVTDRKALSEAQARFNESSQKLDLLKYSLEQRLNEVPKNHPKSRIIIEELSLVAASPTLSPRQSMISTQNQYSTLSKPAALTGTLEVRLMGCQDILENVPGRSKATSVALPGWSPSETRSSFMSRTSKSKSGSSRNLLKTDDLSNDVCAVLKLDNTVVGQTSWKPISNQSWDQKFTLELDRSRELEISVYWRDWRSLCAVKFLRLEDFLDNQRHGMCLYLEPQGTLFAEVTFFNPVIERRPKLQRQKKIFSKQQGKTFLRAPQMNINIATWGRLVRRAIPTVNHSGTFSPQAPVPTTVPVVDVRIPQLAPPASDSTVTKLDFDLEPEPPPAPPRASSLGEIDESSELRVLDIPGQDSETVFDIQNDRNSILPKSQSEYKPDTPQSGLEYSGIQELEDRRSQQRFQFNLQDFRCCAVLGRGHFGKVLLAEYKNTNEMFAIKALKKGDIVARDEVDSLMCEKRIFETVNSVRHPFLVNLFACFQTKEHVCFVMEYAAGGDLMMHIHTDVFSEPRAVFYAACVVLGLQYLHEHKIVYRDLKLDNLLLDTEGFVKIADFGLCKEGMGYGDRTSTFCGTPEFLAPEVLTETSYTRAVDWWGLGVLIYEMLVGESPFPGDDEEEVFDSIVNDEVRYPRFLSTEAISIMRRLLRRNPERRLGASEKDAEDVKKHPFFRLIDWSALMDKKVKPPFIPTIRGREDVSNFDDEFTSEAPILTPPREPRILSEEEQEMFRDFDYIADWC

[41] = molecular target: Misshapen-like kinase 1 (Homo sapiens, UniProt Q8N4C8); format: functional;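 further: kinome panel screen with MINK as the panel member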
[42] = molecular target: Focal adhesion kinase 1 (Homo sapiens, UniProt Q05397); format: functional;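 further: measured as one member of a kinome panel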
[43] = molecular target: Protein kinase C theta type (Homo sapiens, UniProt Q04759); test: Navigating the Kinome. Panel member name: PRKCQ; format: functional
[44] = molecular target: Tyrosine-protein kinase receptor TYRO3 (Homo sapiens, UniProt Q06418); format: functional;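 further: TYRO3 value obtained as one member of a kinome-wide profiling panel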
[45] = molecular target: Cell division cycle 7-related protein kinase (Homo sapiens, UniProt O00311); format: functional;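 further: value obtained from a kinome-wide kinase panel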
Cell division cycle 7-related protein kinase, sequence (O00311 whole entry): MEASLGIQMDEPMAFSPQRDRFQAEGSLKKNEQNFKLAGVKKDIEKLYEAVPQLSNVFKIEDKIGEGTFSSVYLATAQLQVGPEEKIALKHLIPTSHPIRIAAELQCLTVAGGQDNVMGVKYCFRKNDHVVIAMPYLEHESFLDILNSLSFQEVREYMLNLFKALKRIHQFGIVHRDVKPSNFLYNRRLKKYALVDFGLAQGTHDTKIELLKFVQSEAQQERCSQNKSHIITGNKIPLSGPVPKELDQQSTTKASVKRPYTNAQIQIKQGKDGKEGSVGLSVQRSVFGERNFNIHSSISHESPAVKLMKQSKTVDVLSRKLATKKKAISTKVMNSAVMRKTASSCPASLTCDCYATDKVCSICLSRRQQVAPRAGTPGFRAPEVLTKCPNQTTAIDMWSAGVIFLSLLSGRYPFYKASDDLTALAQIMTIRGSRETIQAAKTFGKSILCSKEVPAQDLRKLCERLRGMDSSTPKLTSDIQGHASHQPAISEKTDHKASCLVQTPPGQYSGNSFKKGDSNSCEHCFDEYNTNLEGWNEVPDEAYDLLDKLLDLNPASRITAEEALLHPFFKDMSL

[46] = molecular target: Serine/threonine-protein kinase TAO1 (Homo sapiens, UniProt Q7L7X3); format: functional
[47] = molecular target: ALK tyrosine kinase receptor (Homo sapiens, UniProt Q9UM73); format: functional;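 further: ALK tested as one member of a kinase panel screen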
[48] = molecular target: Tyrosine-protein kinase Lck (Homo sapiens, UniProt P06239); format: functional;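 further: lck was assayed as one member of a kinase panel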

Compound: NC(COc1cncc(-c2cc3ccncc3s2)c1)Cc1c[nH]c2ccccc12 (stereo not drawn)
- Ki [1]: 0.251 µM (active)
- Ki [2]: 0.316 µM (active)
- Ki [3]: 0.158 µM (active)
- Ki [4]: 3.16 µM (active)
- Ki [5]: 2 µM (active)
- Ki [6]: 0.2 µM (active)
- Ki [7]: > 2.51 µM (inactive)
- Ki [8]: 0.251 µM (active)
- Ki [9]: 0.0251 µM (active)
- Ki [10]: > 7.94 µM (inactive)
- Ki [11]: 1.58 µM (active)
- Ki [12]: 3.98 µM (active)
- Ki [13]: 0.794 µM (active)
- Ki [14]: 0.398 µM (active)
- Ki [15]: 0.398 µM (active)
- Ki [16]: 0.794 µM (active)
- Ki [17]: 0.398 µM (active)
- Ki [18]: 7.94 µM (active)
- Ki [19]: 0.0501 µM (active)
- Ki [20]: > 7.94 µM (inactive)
- Ki [21]: > 10 µM (inactive)
- Ki [22]: > 2 µM (inactive)
- Ki [23]: > 5.01 µM (inactive)
- Ki [24]: 1.58 µM (active)
- Ki [25]: 0.316 µM (active)
- Ki [26]: > 3.16 µM (inactive)

- Ki [27]: 1.26 µM (active)
- Ki [28]: 0.251 µM (active)
- Ki [29]: 0.126 µM (active)
- Ki [30]: 0.0794 µM (active)
- Ki [31]: 0.00501 µM (active)
- Ki [32]: > 3.98 µM (inactive)
- Ki [33]: 0.00316 µM (active)
- Ki [34]: 0.00251 µM (active)
- Ki [35]: > 2.51 µM (inactive)
- Ki [36]: 2.51 µM (active)
- Ki [37]: 0.316 µM (active)
- Ki [38]: 0.0631 µM (active)
- Ki [39]: 0.1 µM (active)
- Ki [40]: 0.01 µM (active)
- Ki [41]: 0.0316 µM (active)
- Ki [42]: > 6.31 µM (inactive)
- Ki [43]: 0.00794 µM (active)
- Ki [44]: > 3.16 µM (inactive)
- Ki [45]: 0.000316 µM (active)
- Ki [46]: > 6.31 µM (inactive)
- Ki [47]: 1.58 µM (active)
- Ki [48]: 5.01 µM (active)
Compound: CN(C)C1CCC(Nc2nc(Cl)cc(-c3c[nH]c4ncccc34)n2)CC1 (stereo not drawn)
